Reference: ChEMBL document CHEMBL1201862, “PubChem BioAssay data set” (2004)
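48-hour exposure; five concentrations; linearly interpolated endpoints. The concentration for 50% growth inhibition is given as GI50.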 The source made the active and inactive calls. No stated cut-off is given here; in the data, active = GI50 up to about 1.1 µM and inactive = higher.

Tests used:
Test in all cases: NCI-60 cell line screen, 48 h
786-0 = test system: 786-0
A498 = test system: A498
A549 = test system: A549
ACHN = test system: ACHN
BT-549 = test system: BT-549
CAKI-1 = test system: CAKI-1
CCRF-CEM = test system: CCRF-CEM
COLO 205 = test system: COLO 205
DU-145 = test system: DU-145
EKVX = test system: EKVX
HCC 2998 = test system: HCC 2998
HCT-116 = test system: HCT-116
HCT-15 = test system: HCT-15
HL-60 = test system: HL-60
HOP-62 = test system: HOP-62
HOP-92 = test system: HOP-92
HT-29 = test system: HT-29
Hs-578T = test system: Hs-578T
IGROV-1 = test system: IGROV-1
K562 = test system: K562
KM12 = test system: KM12
LOX IMVI = test system: LOX IMVI
M14 = test system: M14
MCF7 = test system: MCF7
MDA-MB-231 = test system: MDA-MB-231
MDA-MB-435 = test system: MDA-MB-435
MDA-N = test system: MDA-N
MOLT-4 = test system: MOLT-4
Malme-3M = test system: Malme-3M
NCI-H226 = test system: NCI-H226
NCI-H23 = test system: NCI-H23
NCI-H460 = test system: NCI-H460
NCI-H522 = test system: NCI-H522
NCI/ADR-RES = test system: NCI/ADR-RES
OVCAR-3 = test system: OVCAR-3
OVCAR-4 = test system: OVCAR-4
OVCAR-5 = test system: OVCAR-5
OVCAR-8 = test system: OVCAR-8
PC-3 = test system: PC-3
RPMI-8226 = test system: RPMI-8226
RXF 393 = test system: RXF 393
SF-268 = test system: SF-268
SF-295 = test system: SF-295
SF-539 = test system: SF-539
SK-MEL-28 = test system: SK-MEL-28
SK-MEL-2 = test system: SK-MEL-2
SK-MEL-5 = test system: SK-MEL-5
SK-OV-3 = test system: SK-OV-3
SN12C = test system: SN12C
SNB-19 = test system: SNB-19
SNB-75 = test system: SNB-75
SR = test system: SR
SW-620 = test system: SW-620
T47D = test system: T47D
TK-10 = test system: TK-10
U-251 = test system: U-251
UACC-257 = test system: UACC-257
UACC-62 = test system: UACC-62
UO-31 = test system: UO-31

Structure (SMILES): COC(C)(C)[C@@H](O)[C@H]1C[C@H](C)[C@@]2(CC[C@]3(C)[C@@H]2CC[C@@H]2[C@@]4(C)CC[C@@H](OC(C)=O)C(C)(C)[C@@H]4C[C@@H](OC4OC(COC(C)=O)C(O)C(O)C4O)[C@]23C)O1 (stereo partly drawn)
- GI50 (786-0): 5.86 µM (inactive)
- GI50 (A498): 6.41 µM (inactive)
- GI50 (A549): 4.01 µM (inactive)
- GI50 (ACHN): 5.86 µM (inactive)
- GI50 (BT-549): 4.86 µM (inactive)
- GI50 (CAKI-1): 8.43 µM (inactive)
- GI50 (CCRF-CEM): 3.3 µM (inactive)
- GI50 (COLO 205): 2.38 µM (inactive)
- GI50 (DU-145): 4.37 µM (inactive)
- GI50 (EKVX): 5.74 µM (inactive)
- GI50 (HCC 2998): 0.662 µM (active)
- GI50 (HCT-116): 3.25 µM (inactive)
- GI50 (HCT-15): 2.39 µM
- GI50 (HL-60): 2.1 µM (inactive)
- GI50 (HOP-62): 12.3 µM (inactive)
- GI50 (HOP-92): 4.8 µM (inactive)
- GI50 (HT-29): 1.89 µM (inactive)
- GI50 (Hs-578T): 6.76 µM (inactive)
- GI50 (IGROV-1): 4.39 µM (inactive)
- GI50 (K562): 3.79 µM (inactive)
- GI50 (KM12): 1.79 µM (inactive)
- GI50 (LOX IMVI): 3.9 µM (inactive)
- GI50 (M14): 4.8 µM (inactive)
- GI50 (MCF7): 2.86 µM (inactive)
- GI50 (MDA-MB-231): 8.83 µM (inactive)
- GI50 (MDA-MB-435): 3.29 µM (inactive)
- GI50 (MDA-N): 5.43 µM (inactive)
- GI50 (MOLT-4): 2.32 µM (inactive)
- GI50 (Malme-3M): 10.5 µM (inactive)
- GI50 (NCI-H226): 4.75 µM (inactive)
- GI50 (NCI-H23): 10.2 µM (inactive)
- GI50 (NCI-H460): 4.37 µM (inactive)
- GI50 (NCI-H522): 4.04 µM (inactive)
- GI50 (NCI/ADR-RES): 7.43 µM (inactive)
- GI50 (OVCAR-3): 4.26 µM (inactive)
- GI50 (OVCAR-4): 3.48 µM (inactive)
- GI50 (OVCAR-5): 2.54 µM (inactive)
- GI50 (OVCAR-8): 5.33 µM (inactive)
- GI50 (PC-3): 2.63 µM (inactive)
- GI50 (RPMI-8226): 2.42 µM (inactive)
- GI50 (RXF 393): 4.1 µM (inactive)
- GI50 (SF-268): 4.98 µM (inactive)
- GI50 (SF-295): 4.51 µM (inactive)
- GI50 (SF-539): 10.1 µM (inactive)
- GI50 (SK-MEL-28): 7.57 µM (inactive)
- GI50 (SK-MEL-2): 4.75 µM (inactive)
- GI50 (SK-MEL-5): 6.53 µM (inactive)
- GI50 (SK-OV-3): 4.7 µM (inactive)
- GI50 (SN12C): 6.43 µM (inactive)
- GI50 (SNB-19): 8.73 µM (inactive)
- GI50 (SNB-75): 4.46 µM (inactive)
- GI50 (SR): 2.52 µM (inactive)
- GI50 (SW-620): 6.81 µM (inactive)
- GI50 (T47D): 4.14 µM (inactive)
- GI50 (TK-10): 12.2 µM (inactive)
- GI50 (U-251): 5.7 µM (inactive)
- GI50 (UACC-257): 6.44 µM (inactive)
- GI50 (UACC-62): 4.93 µM (inactive)
- GI50 (UO-31): 4.67 µM (inactive)

Structure (SMILES): O=C1C2C3C4C1C1C2[C@H](OCc2ccccc2)C3C1[C@H]4OCc1ccccc1 (stereo partly drawn)
- GI50 (786-0): > 100 µM (inactive)
- GI50 (A498): > 100 µM (inactive)
- GI50 (A549): 40.9 µM (inactive)
- GI50 (ACHN): 47.6 µM (inactive)
- GI50 (BT-549): > 100 µM (inactive)
- GI50 (CAKI-1): 41.7 µM (inactive)
- GI50 (CCRF-CEM): > 100 µM (inactive)
- GI50 (COLO 205): 28.9 µM (inactive)
- GI50 (DU-145): > 100 µM (inactive)
- GI50 (EKVX): 27.6 µM (inactive)
- GI50 (HCC 2998): 31.3 µM (inactive)
- GI50 (HCT-116): 50.5 µM (inactive)
- GI50 (HCT-15): 22.2 µM
- GI50 (HL-60): 22.5 µM (inactive)
- GI50 (HOP-62): 73.3 µM (inactive)
- GI50 (HOP-92): 17 µM (inactive)
- GI50 (HT-29): 15.2 µM (inactive)
- GI50 (Hs-578T): 20.5 µM (inactive)
- GI50 (IGROV-1): > 100 µM (inactive)
- GI50 (K562): > 100 µM (inactive)
- GI50 (KM12): 52.2 µM (inactive)
- GI50 (LOX IMVI): 40.4 µM (inactive)
- GI50 (M14): 51.8 µM (inactive)
- GI50 (MCF7): > 100 µM (inactive)
- GI50 (MDA-MB-231): 82 µM (inactive)
- GI50 (MDA-MB-435): 61.4 µM (inactive)
- GI50 (MDA-N): > 100 µM (inactive)
- GI50 (MOLT-4): 50.1 µM (inactive)
- GI50 (Malme-3M): 76 µM (inactive)
- GI50 (NCI-H226): 76.9 µM (inactive)
- GI50 (NCI-H23): 48.8 µM (inactive)
- GI50 (NCI-H460): 49.8 µM (inactive)
- GI50 (NCI-H522): 11.2 µM (inactive)
- GI50 (NCI/ADR-RES): 19.7 µM (inactive)
- GI50 (OVCAR-3): 60.5 µM (inactive)
- GI50 (OVCAR-4): 70.3 µM (inactive)
- GI50 (OVCAR-5): 24.3 µM (inactive)
- GI50 (OVCAR-8): > 100 µM (inactive)
- GI50 (PC-3): 36.1 µM (inactive)
- GI50 (RPMI-8226): 36.6 µM (inactive)
- GI50 (RXF 393): 31.8 µM (inactive)
- GI50 (SF-268): 60.5 µM (inactive)
- GI50 (SF-295): > 100 µM (inactive)
- GI50 (SF-539): 75.2 µM (inactive)
- GI50 (SK-MEL-28): 40.2 µM (inactive)
- GI50 (SK-MEL-2): 51.2 µM (inactive)
- GI50 (SK-MEL-5): 36.3 µM (inactive)
- GI50 (SK-OV-3): > 100 µM (inactive)
- GI50 (SN12C): > 100 µM (inactive)
- GI50 (SNB-19): 67.9 µM (inactive)
- GI50 (SNB-75): 38.9 µM (inactive)
- GI50 (SR): 19.1 µM (inactive)
- GI50 (SW-620): 46 µM (inactive)
- GI50 (T47D): 34.4 µM (inactive)
- GI50 (TK-10): > 100 µM (inactive)
- GI50 (U-251): 77.3 µM (inactive)
- GI50 (UACC-257): 33 µM (inactive)
- GI50 (UACC-62): 41.5 µM (inactive)
- GI50 (UO-31): 55.8 µM (inactive)
